Results reported in patent publication EP0319906A2, “Novel quinoline derivatives, processes for preparation thereof and antibacterial agent containing them” (Dainippon Pharmaceutical Co., Ltd., priority 1987, dated 1989).
In brackets after ≈: the same amount, converted by molar mass.

How the values were obtained:
S. aureus Terajima = test: In vitro antibacterial activity, twofold agar-dilution MIC; assay type: cell-based; details: Staphylococcus aureus; S. aureus Terajima; Mueller-Hinton agar, 20-hour incubation at 37 °C; calculated for free base; read-out: minimum inhibitory concentrations (MIC)
Method: (§1) The figures in the table show minimum inhibitory concentrations (MIC) (µg/ml), calculated for free base. […] One loopful of an overnight culture of test organisms in Mueller-Hinton broth was inoculated onto 10 ml drug- containing agar layers in petri dishes. Bacterial inocula contained approximately 10⁶ colonyl-forming units. […] The MIC was defined as the lowest drug concentration which prevented visible bacterial growth.

P. aeruginosa 12 = test: as above; assay type: cell-based; details: Pseudomonas aeruginosa; P. aeruginosa 12; Mueller-Hinton agar, 20-hour incubation at 37 °C; calculated for free base; read-out: minimum inhibitory concentrations (MIC)
Method: as §1

S. pyogenes A65 = test: as above; assay type: cell-based; details: Streptococcus pyogenes; S. pyogenes A65; Mueller-Hinton agar, 20-hour incubation at 37 °C; calculated for free base; read-out: minimum inhibitory concentrations (MIC)
Method: as §1

E. coli P-5101 = test: as above; assay type: cell-based; details: Escherichia coli, P5101; E. coli P-5101; Mueller-Hinton agar, 20-hour incubation at 37 °C; calculated for free base; read-out: minimum inhibitory concentrations (MIC)
Method: as §1

S. aureus 209 JC-1 = test: as above; assay type: cell-based; details: Staphylococcus aureus, 209JC1; S. aureus 209 JC-1; Mueller-Hinton agar, 20-hour incubation at 37 °C; calculated for free base; read-out: minimum inhibitory concentrations (MIC)
Method: as §1

S. marcescens S-9 = test: as above; assay type: cell-based; details: Serratia marcescens, S9; S. marcescens S-9; Mueller-Hinton agar, 20-hour incubation at 37 °C; calculated for free base; read-out: minimum inhibitory concentrations (MIC)
Method: as §1

S. aureus No. 80 = test: as above; assay type: cell-based; details: Staphylococcus aureus; S. aureus No. 80; Mueller-Hinton agar, 20-hour incubation at 37 °C; calculated for free base; read-out: minimum inhibitory concentrations (MIC)
Method: as §1

S. epidermidis No. 8 = test: as above; assay type: cell-based; details: Staphylococcus epidermidis; S. epidermidis No. 8; Mueller-Hinton agar, 20-hour incubation at 37 °C; calculated for free base; read-out: minimum inhibitory concentrations (MIC)
Method: as §1

E. coli NIHJ JC-2 = test: as above; assay type: cell-based; details: Escherichia coli, NIHJJC2; E. coli NIHJ JC-2; Mueller-Hinton agar, 20-hour incubation at 37 °C; calculated for free base; read-out: minimum inhibitory concentrations (MIC)
Method: as §1

in vivo = details: mouse, po; for LD50 at 7 days: male, ddY
Method: A suspension containing each of compounds of this invention in various concentrations was orally given to male mice (ddY) at a dose of 0.1 ml per 10 g of body weight. The number of dead mice was counted after 7 days, and the value of median lethal dose (LD₅₀, mg/kg) was calculated in accordance with the Behrens-Kaerber method.

[1] = tested on: C. Trachomatics G/ur 1242; test: Antichlamydia activity, MIC in McCoy cells (inclusion bodies); assay type: cell-based; details: C. Trachomatics G/ur 1242; McCoy cells, 36 °C for 40-48 hours; calculated for free base; read-out: minimum inhibitory concentrations (MIC)
Method: (§2) The figures in the table show minimum inhibitory concentrations (MIC), (μg/ml), calculated for free base. Minimum inhibitory concentrations (MIC) were determined as follows. […] The cells were trypsinized and suspended in the same culture medium at a cell concentration of 1-2 x 10^5 cells/ml. One ml of the cell suspension was pipetted into flat-bottomed plastic tubes (14 mm in diameter) containing a cover slip (12 mm in diameter). The tubes were incubated in 5 % CO2-air at 36 °C for 20 hours. One-half ml of a chlamydial suspension (ca. 1-4 x 103 inclusion body forming units) was added into each tube, which was then centrifuged at 1500 x g for 60 minutes. The tubes were incubated for 1 hour at 36 °C. […] After further incubation at 36 °C for 40-48 hours, the cells on the cover glasses were stained with the Giemsa's solution. […] The MIC was defined as the lowest drug concentration where there were no inclusion bodies in all the cells on the cover slip.

[2] = tested on: C. Trachomatics G/ur 1448; test: as above; assay type: cell-based; details: C. Trachomatics G/ur 1448; McCoy cells, 36 °C for 40-48 hours; calculated for free base; read-out: minimum inhibitory concentrations (MIC)
Method: as §2

C. Trachomatics G/ur 931 = test: as above; assay type: cell-based; details: C. Trachomatics G/ur 931; McCoy cells, 36 °C for 40-48 hours; calculated for free base; read-out: minimum inhibitory concentrations (MIC)
Method: as §2

[3] = tested on: C. Trachomatics G/ur 1317; test: as above; assay type: cell-based; details: C. Trachomatics G/ur 1317; McCoy cells, 36 °C for 40-48 hours; calculated for free base; read-out: minimum inhibitory concentrations (MIC)
Method: as §2

SMILES: Cc1c(F)c(N2CCNCC2)c(F)c2c1c(=O)c(C(=O)O)cn2C1CC1 [Compound 2, 1-cyclopropyl-6,8--difluoro-5-methyl-7-(1-piperazinyl)-1,4-dihydro-4-oxoquinoline-3-carboxylic acid]
- MIC (S. aureus Terajima): 0.025 µg/mL (≈ 0.0688 µM)
- MIC (P. aeruginosa 12): 0.2 µg/mL (≈ 0.55 µM)
- MIC (S. pyogenes A65): 0.39 µg/mL (≈ 1.07 µM)
- MIC (E. coli P-5101): 0.0063 µg/mL (≈ 0.0173 µM)
- MIC (S. aureus 209 JC-1): 0.025 µg/mL (≈ 0.0688 µM)
- MIC (S. marcescens S-9): 0.1 µg/mL (≈ 0.275 µM)
- MIC (S. aureus No. 80): 0.0125 µg/mL (≈ 0.0344 µM)
- MIC (S. epidermidis No. 8): 0.025 µg/mL (≈ 0.0688 µM)
- MIC (E. coli NIHJ JC-2): 0.0063 µg/mL (≈ 0.0173 µM)
- LD50 at 168 h (in vivo; orally given to male mice (ddY), dead mice counted after 7 days, Behrens-Kaerber method, read-out: LD₅₀): > 2000 mg/kg
- MIC [1]: 0.1 µg/mL (≈ 0.275 µM)
- MIC [2]: 0.1 µg/mL (≈ 0.275 µM)
- MIC (C. Trachomatics G/ur 931): 0.05 µg/mL (≈ 0.138 µM)
- MIC [3]: 0.1 µg/mL (≈ 0.275 µM)

SMILES: Cc1c(F)c(N2CCC(N)C2)c(F)c2c1c(=O)c(C(=O)O)cn2C1CC1 (centres unmarked) [Compound 3, 7-(3-amino-1-pyrrolidinyl)-1-cyclopropyl-6,8-difluoro-5-methyl-1,4-dihydro-4-oxoquinoline-3-carboxylic acid]
- MIC (S. aureus Terajima): 0.0125 µg/mL (≈ 0.0344 µM)
- MIC (P. aeruginosa 12): 0.2 µg/mL (≈ 0.55 µM)
- MIC (S. pyogenes A65): 0.2 µg/mL (≈ 0.55 µM)
- MIC (E. coli P-5101): 0.0125 µg/mL (≈ 0.0344 µM)
- MIC (S. aureus 209 JC-1): 0.0125 µg/mL (≈ 0.0344 µM)
- MIC (S. marcescens S-9): 0.05 µg/mL (≈ 0.138 µM)
- MIC (S. aureus No. 80): 0.0125 µg/mL (≈ 0.0344 µM)
- MIC (S. epidermidis No. 8): 0.0125 µg/mL (≈ 0.0344 µM)
- MIC (E. coli NIHJ JC-2): 0.0125 µg/mL (≈ 0.0344 µM)
- LD50 at 7 days (in vivo): > 2000 mg/kg
- MIC [1]: 0.013 µg/mL (≈ 0.0358 µM)
- MIC [2]: 0.013 µg/mL (≈ 0.0358 µM)
- MIC (C. Trachomatics G/ur 931): 0.013 µg/mL (≈ 0.0358 µM)
- MIC [3]: 0.013 µg/mL (≈ 0.0358 µM)

SMILES: Cc1c(F)c(N2C[C@@H](C)N[C@@H](C)C2)cc2c1c(=O)c(C(=O)O)cn2C1CC1 [Compound 4, 1-cyclopropyl-6-fluoro-5-methyl-7-(cis-3,5-dimethyl-1-piperazinyl)-1,4-dihydro-4-oxoquinoline-3-carboxylic acid]
- MIC (S. aureus Terajima): 0.025 µg/mL (≈ 0.0669 µM)
- MIC (P. aeruginosa 12): 0.2 µg/mL (≈ 0.536 µM)
- MIC (S. pyogenes A65): 0.1 µg/mL (≈ 0.268 µM)
- MIC (E. coli P-5101): 0.025 µg/mL (≈ 0.0669 µM)
- MIC (S. aureus 209 JC-1): 0.025 µg/mL (≈ 0.0669 µM)
- MIC (S. marcescens S-9): 0.39 µg/mL (≈ 1.04 µM)
- MIC (S. aureus No. 80): 0.05 µg/mL (≈ 0.134 µM)
- MIC (S. epidermidis No. 8): 0.05 µg/mL (≈ 0.134 µM)
- MIC (E. coli NIHJ JC-2): 0.0125 µg/mL (≈ 0.0335 µM)
- LD50 at 7 days (in vivo): > 2000 mg/kg
